pIC50: −log10 of the molar value. Peptide text beside a SMILES is read from it.
Molecular target: T1, Dipeptidyl peptidase 4 (Homo sapiens, UniProt P27487)
Assay: Inhibition of recombinant human DPP4 using H-Gly-Pro-AMC as substrate preincubated for 15 mins followed by substrate addition measured for 20 mins with 1 min interval
Settings: not given
Target sequence in this assay (P27487 whole entry): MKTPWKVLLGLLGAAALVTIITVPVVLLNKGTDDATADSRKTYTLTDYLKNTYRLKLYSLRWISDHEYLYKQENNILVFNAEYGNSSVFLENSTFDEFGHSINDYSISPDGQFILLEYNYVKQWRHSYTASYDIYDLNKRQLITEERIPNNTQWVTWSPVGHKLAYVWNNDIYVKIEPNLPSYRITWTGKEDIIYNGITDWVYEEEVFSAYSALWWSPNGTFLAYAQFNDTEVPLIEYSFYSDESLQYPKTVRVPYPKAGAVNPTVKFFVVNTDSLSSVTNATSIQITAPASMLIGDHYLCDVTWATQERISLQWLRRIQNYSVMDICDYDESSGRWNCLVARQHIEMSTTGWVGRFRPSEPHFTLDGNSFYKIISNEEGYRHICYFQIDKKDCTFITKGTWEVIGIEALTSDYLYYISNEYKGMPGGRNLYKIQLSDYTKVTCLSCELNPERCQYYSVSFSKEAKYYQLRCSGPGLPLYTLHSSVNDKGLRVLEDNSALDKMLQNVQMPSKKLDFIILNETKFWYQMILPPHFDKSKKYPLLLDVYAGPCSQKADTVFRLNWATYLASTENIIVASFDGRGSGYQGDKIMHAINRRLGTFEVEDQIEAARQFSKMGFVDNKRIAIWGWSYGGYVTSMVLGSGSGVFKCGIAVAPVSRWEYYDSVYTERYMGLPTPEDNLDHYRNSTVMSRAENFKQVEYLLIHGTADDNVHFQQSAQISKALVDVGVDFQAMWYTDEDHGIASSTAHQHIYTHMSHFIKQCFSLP

pIC50 | Compound
5.46 | O=C(N/N=C/c1cccc2ccccc12)c1[nH]nc2c1CCCC2
5.67 | O=C(N/N=C/c1c(O)ccc2ccccc12)c1n[nH]c2c1CCCC2

Molecular target: T1, Dipeptidyl peptidase 4
Assay: Inhibition of DPP4 (unknown origin)
Settings: not given
Target sequence in this assay (P27487 whole entry, looked up): as the sequence (P27487 whole entry) above

pIC50 | Compound
7.19 | CC#CCn1c(N2CCC[C@@H](N)C2)cc(=O)n(Cc2cn(CCC(=O)OC)nn2)c1=O

Molecular target: T1, Dipeptidyl peptidase 4
Assay: Inhibition of recombinant human DPP4 using Gly-Pro-AMC as substrate after 1 hr by fluorescence assay
Settings: not given
Target sequence in this assay (P27487 whole entry): as above

pIC50 | Compound
7.85 | N[C@@H](CCn1cc(-c2ccncc2)nn1)Cc1cc(F)c(F)cc1F

Molecular target: T1, Dipeptidyl peptidase 4
Assay: Inhibition of recombinant human DPP4 expressed in baculovirus expression system using Ala-Pro-AMC as substrate by fluorometric analysis
Settings: not given
Target sequence in this assay (P27487 whole entry): as above

pIC50 | Compound
5.88 | Cc1cc(-c2cn([C@@H]3CN[C@H](C(=O)N4CCC(F)(F)C4)C3)nn2)ccc1F
6.14 | COC(=O)c1cn([C@@H]2CN[C@H](C(=O)N3CCC(F)(F)C3)C2)nn1
6.18 | O=C([C@@H]1C[C@H](n2cc(-c3ccccc3)nn2)CN1)N1CCC(F)(F)C1

Molecular target: T1, Dipeptidyl peptidase 4
Assay: Inhibition of DPP4 (unknown origin) using Gly-Pro-AMC as substrate preincubated for 4 secs followed by substrate addition and measured after 30 mins by […] assay
Settings: not given
Target sequence in this assay (P27487 whole entry): as above

Compound | pIC50
O=c1cc(-c2ccc(O)cc2)oc2cc(O)cc(O)c12 [APIGENIN] | 6.85
O=C(O[C@@H]1Cc2c(O)cc(O)cc2O[C@@H]1c1cc(O)c(O)c(O)c1)c1cc(O)c(O)c(O)c1 [EPIGALOCATECHIN GALLATE] | 4.99
O=C(O)c1cc(O)c(O)c(O)c1 [GALLIC ACID] | 5.33
O=c1cc(-c2ccc(O)c(O)c2)oc2cc(O)cc(O)c12 [LUTEOLIN] | 6.92
COc1cc(-c2[o+]c3cc(O)cc(O)c3cc2O)cc(OC)c1O [MALVIDIN CHLORIDE] | 5.85
O=C1C[C@@H](c2ccc(O)cc2)Oc2cc(O)cc(O)c21 [NARINGENIN] | 6.62
O=c1c(O)c(-c2ccc(O)c(O)c2)oc2cc(O)cc(O)c12 [QUERCETIN] | 5.53

Now from value to compound:

pIC50 | Compound
5.47 | O=C(O)/C=C/c1ccc(O)c(O)c1 [CAFFEIC ACID]
5.85 | Oc1cc(O)c2cc(O)c(-c3ccc(O)c(O)c3)[o+]c2c1 [CYANIDIN CHLORIDE]
4.98 | C[C@@H]1O[C@@H](OC[C@H]2O[C@@H](Oc3cc(O)c4c(c3)O[C@H](c3ccc(O)c(O)c3)CC4=O)[C@H](O)[C@@H](O)[C@@H]2O)[C@H](O)[C@H](O)[C@H]1O [ERIOCITRIN]
6.77 | O=c1cc(-c2ccccc2)oc2ccccc12 [FLAVONE]
6.32 | O=c1c(-c2ccc(O)cc2)coc2cc(O)cc(O)c12 [GENISTEIN]
6.55 | COc1ccc([C@@H]2CC(=O)c3c(O)cc(O)cc3O2)cc1O [HESPERETIN]
6.31 | O=c1c(O)c(-c2ccc(O)cc2)oc2cc(O)cc(O)c12 [KAEMPFEROL]
6.38 | OC[C@H]1O[C@@H](Oc2cc3c(O)cc(O)cc3[o+]c2-c2ccc(O)c(O)c2)[C@H](O)[C@@H](O)[C@@H]1O [KUROMANIN]
9.22 | Oc1ccc(/C=C/c2cc(O)cc(O)c2)cc1 [RESVERATROL]

Molecular target: T1, Dipeptidyl peptidase 4
Assay: Inhibition of recombinant human DPP4 using Gly-Pro-AMC as substrate after 30 mins by fluorescence assay
Settings: not given
Target sequence in this assay (P27487 whole entry): as above

Compound | pIC50
Brc1nc2n(n1)CC(c1cc3ccccc3o1)=NN2 | 4.55

Tested on: not listed separately
Assay: Elimination half life in human
Settings: in vivo

Compound | half-life [h]
N#C[C@@H]1C[C@@H]2C[C@@H]2N1C(=O)[C@@H](N)C12CC3CC(CC(C3)C1)C2 | 2 to 4
CC1(C)CCC(=O)N(C[C@@H](N)CC(=O)N2CCc3c(nc(C(F)(F)F)nc3C(F)(F)F)C2)C1 | 16.7 to 21.3
Cn1c(=O)cc(N2CCC[C@@H](N)C2)n(Cc2ccccc2C#N)c1=O [ALOGLIPTIN] | 21.1

Continued, values first:

half-life [h] | Compound
5.8 to 6.2 | Cc1cc2ncc(C(=O)NCC(C)(C)NCC(=O)N3CCC[C@H]3C#N)cn2n1 [ANAGLIPTIN]
32.5 to 39.8 | CC(C)(C)OC[C@@H]1C(=O)NCCN1C(=O)C[C@H](N)Cc1cc(F)c(F)cc1F [EVOGLIPTIN]
63.5 | O=C([C@@H]1C[C@H](N2CCN(c3ncccn3)CC2)CN1)N1CCC(F)(F)C1 [GOSOGLIPTIN]
10 to 40 | CC#CCn1c(N2CCC[C@@H](N)C2)nc2c1c(=O)n(Cc1nc(C)c3ccccc3n1)c(=O)n2C [LINAGLIPTIN]
11 to 22 | CS(=O)(=O)n1cc2c(n1)CN([C@H]1CO[C@H](c3cc(F)ccc3F)[C@@H](N)C1)C2 [OMARIGLIPTIN]
8 to 24 | N[C@@H](CC(=O)N1CCn2c(nnc2C(F)(F)F)C1)Cc1cc(F)c(F)cc1F [SITAGLIPTIN]
26.9 | Cc1cc(N2CCN([C@@H]3CN[C@H](C(=O)N4CCSC4)C3)CC2)n(-c2ccccc2)n1 [TENELIGLIPTIN]
38.4 to 54.3 | Cn1c(=O)cc(N2CCC[C@@H](N)C2)n(Cc2cc(F)ccc2C#N)c1=O [TRELAGLIPTIN]

Molecular target: T1, Dipeptidyl peptidase 4
Assay: Inhibition of DPP4 (unknown origin) using Gly-Pro-pNA as substrate after 60 mins
Settings: not given
Target sequence in this assay (P27487 whole entry): as above

pIC50 | Compound
4.18 | CC(C)[C@H](N)C(=O)N[C@@H](Cc1c[nH]c2ccccc12)C(=O)O [VALYLTRYPTOPHAN] (H-Val-Trp-OH)

Molecular target: T1, Dipeptidyl peptidase 4
Assay: Inhibition of recombinant human DPP4 using H-Gly-Pro-AMC as substrate after 30 mins by fluorometric analysis
Settings: not given

pIC50 | Compound
7.02 | O=C(CNC(=O)C1CCCN(S(=O)(=O)c2ccccc2)C1)Nc1ccc(Cl)cc1 (centres undefined)

Molecular target: T2, Dipeptidyl peptidase 4 (Sus scrofa, UniProt P22411)
T2 sequence (P22411 whole entry): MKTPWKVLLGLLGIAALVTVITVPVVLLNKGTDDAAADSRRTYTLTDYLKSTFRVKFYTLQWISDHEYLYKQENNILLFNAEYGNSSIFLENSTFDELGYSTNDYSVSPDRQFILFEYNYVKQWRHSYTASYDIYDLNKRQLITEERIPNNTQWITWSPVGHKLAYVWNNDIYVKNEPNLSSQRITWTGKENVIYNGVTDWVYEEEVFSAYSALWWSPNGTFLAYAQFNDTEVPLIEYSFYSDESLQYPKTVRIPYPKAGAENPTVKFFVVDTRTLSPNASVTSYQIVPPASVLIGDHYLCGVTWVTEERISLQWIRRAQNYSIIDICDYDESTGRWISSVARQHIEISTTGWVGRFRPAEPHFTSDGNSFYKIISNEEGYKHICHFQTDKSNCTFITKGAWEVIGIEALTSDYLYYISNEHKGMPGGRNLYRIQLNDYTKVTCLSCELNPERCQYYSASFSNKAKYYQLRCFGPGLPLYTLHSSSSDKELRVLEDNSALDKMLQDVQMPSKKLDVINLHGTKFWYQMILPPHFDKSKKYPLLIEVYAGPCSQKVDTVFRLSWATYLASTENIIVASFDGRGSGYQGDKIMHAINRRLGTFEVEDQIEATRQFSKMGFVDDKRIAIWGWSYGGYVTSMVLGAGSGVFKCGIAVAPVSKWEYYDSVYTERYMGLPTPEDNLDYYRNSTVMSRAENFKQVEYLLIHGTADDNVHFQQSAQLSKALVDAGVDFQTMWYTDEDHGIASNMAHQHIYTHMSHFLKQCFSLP
Assay: Inhibition of porcine DPP4 after 30 mins by luminescence assay
Settings: not given

Compound | pIC50
O=C1CC(c2ccc(O)cc2)Oc2cc(O)cc(O)c21 (centres undefined) | 5.60
COc1cc2oc(-c3ccc(O)cc3)cc(=O)c2c(O)c1OC [CIRSIMARITIN] | 6.37
COc1c(O)cc2oc(-c3ccc(O)cc3)cc(=O)c2c1O [HISPIDULIN] | 6.31

Molecular target: T2, Dipeptidyl peptidase 4
Assay: Inhibition of porcine kidney DPP4
Settings: not given

pIC50 | Compound
3.80 to 4.37 | CC[C@H](C)[C@H](N)C(=O)N[C@@H](CC(C)C)C(=O)N[C@@H](C)C(=O)N1CCC[C@H]1C(=O)O (H-ILAP-OH)
3.80 to 4.37 | CC(C)C[C@H](NC(=O)[C@@H](N)CC(C)C)C(=O)N[C@@H](C)C(=O)N1CCC[C@H]1C(=O)O (H-LLAP-OH)
3.80 to 4.37 | H-MAGVDHI-OH

Molecular target: T1, Dipeptidyl peptidase 4
Assay: Inhibition of recombinant human DPP4 pre-incubated for 30 mins before Gly-Pro-Aminomethylcoumarin substrate addition
Settings: not given

pIC50 | Compound
7.71 | CC(C)=CCn1c(N2CCCC(N)C2)nc2c1c(=O)n(Cc1ccccc1C#N)c(=O)n2C (centres undefined)
